Test results as given in patent publication US12098159B2, “Solid forms of substituted benzoxaborole and compositions thereof” (5Metis, Inc., priority 2018, dated 2024).

Experiments:
Assay type in all cases: physicochemical
[1] = VT-XRPD and heating experiments: dehydration of (I) to (II) and conversion back
Description: The compound of formula (II) can be prepared by heating the compound of formula (I) under vacuum or by exposing the compound of formula (I) to dehydrating conditions.
To confirm this hypothesis, variable-temperature XRPD (VT-XRPD) and heating experiments were performed. […] The ^1H NMR results in FIG. 22B show no difference before and after heating, likely because the dehydrated product converted back to (I) after being exposed to residual water in DMSO-d6. TGA was also performed by heating (I) to 160° C. and cooling to room temperature, followed by re-heating to 160° C. after placed being placed under ambient conditions overnight. […] All the results were consistent with the hypothesis that dehydration and hydration reactions would occur during heating and exposure to air, respectively.

[2] = Dynamic vapor sorption (DVS) of Type A
Excerpt: After preparation by the method described in Example 1, the starting material was characterized by X-ray powder diffraction (XRPD), thermo gravimetric analysis (TGA), differential scanning calorimetry (DSC), dynamic vapor sorption (DVS), high performance liquid chromatography (HPLC), and ^1H solution nuclear magnetic resonance (^1H NMR).
(§1) This difference was postulated to be caused by preferred orientation, since the morphology of Type A starting material was rod-like. A two-stage weight loss of 0.5% up to 100° C. and 10.0% from 100° C. to 160° C. was observed on the TGA curve. […] (onset temperature). The DVS isotherm plot of Type A was collected at 25° C. between 0 and 95% RH.

[3] = TGA weight loss (ramp, cycle and isothermal TGA)
Description: TGA data were collected using a TA Q5000/5500 TGA from TA Instruments. DSC was performed using a TA Q2000/2500 DSC from TA Instruments.
as §1
The results of VT-XRPD and heating experiment preliminarily confirmed the dehydration reaction. However, the theoretical weight loss of dehydration was calculated to be 5.4%, which was not consistent with the observed TGA weight loss of 10.0%. To further explain the difference on weight loss, the TGA data of Type A were re-visited. The results in FIG. 23B indicate that there might be 2 events involved in the TGA weight loss from 100° C. to 160° C., one of which is the dehydration of (I) (the theoretical weight loss of dehydration was close to the TGA weight loss up to 128° C.), while the other may be the complete decomposition or sublimation of the dehydrated product (if it's partial decomposition, the sample after heated should not convert back to (I) upon exposure to air).
Cycle TGA was conducted by heating Type A to 160° C. and cooling to 50° C. (with N2 purge, without exposure to air), followed by re-heating to 160° C. […] Isothermal TGA was conducted by heating Type A to 160° C. and isothermal at 160° C. for 0.5 hr. A weight loss of >20% was observed during the isothermal stage FIG. 24B, which was postulated to be decomposition/sublimation.

Row | XRPD pattern of dehydrated product after exposure to air ([1]; after heating to 140° C. with N2 purge, exposed in air for 3 hrs) | behaviour on exposure to water ([1]; exposed to water) | water up-take (DVS) ([2]; 25° C./80% RH) [%] | form change after the DVS test (XRPD) ([2]; DVS at 25° C. between 0 and 95% RH) | TGA weight loss ([3]; from 100° C. to 160° C.) [%] | cycle TGA weight loss on the re-heating curve ([3]; heated to 160° C., cooled to 50° C. with N2 purge, re-heated, up to 150° C.) [%] | isothermal TGA weight loss ([3]; isothermal at 160° C. for 0.5 hr) [%] | Wt Loss on TGA (%, up to 100° C.) ([3]; up to 100° C.) [%] | SMILES | XRPD after heating experiment ([1]; heated to 160° C. and cooled to RT, exposed to air)
1 | converted back to Type A | reverts to the compound of formula (I) | – | – | – | – | – | – | Clc1ccc2c(c1)COB2OB1OCc2cc(Cl)ccc21 [(II), 1,1′-oxybis(5-chloro-1,3-dihydrobenzo[c][1,2]oxaborole)] | –
2 | – | – | 0.1 | no form change was observed | 10.0 | 1.3 | > 20 | 0.5 | OB1OCc2cc(Cl)ccc21 [(I), 5-chlorobenzo[c][1,2]oxaborol-1(3H)-ol] | partial conversion to the dehydrated product (II)
